The supplement of paper PMC12463676, “Small-molecule dissolution of stress granules by redox modulation benefits ALS models” (Nature Chemical Biology, 2025)

Key:
lipoamide = compound: NC(=O)CCCCC1CCSS1 [lipoamide]; experiment: thermal stability z-score vs DMSO; higher = more thermally stabilized by treatment; conditions: HeLa, lipoamide concentration 100 µM
Procedure: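 Cellular thermal proteome profiling in HeLa cells. Cells were treated with 100 µM lipoamide for 1 h, with or without 1 mM arsenate for a further 1 h, then heated to ten temperatures (37-66.3 °C), and soluble protein was quantified by TMT mass spectrometry relative to 0.1% DMSO controls. The thermal stability score (sum of log2 fold changes minus the abundance score) was transformed to a z-score; mean of n = 3 experiments.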

potassium arsenate = compound: O=[As]([O-])(O)O.[K+] [potassium arsenate]; experiment: as above; conditions: HeLa; arsenate concentration 1 mM
Procedure: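 Cellular thermal proteome profiling in HeLa cells treated with 1 mM arsenate for 1 h (DMSO pretreatment), heated to ten temperatures (37-66.3 °C). Soluble protein was quantified by TMT mass spectrometry relative to DMSO controls; the thermal stability score was transformed to a z-score; mean of n = 3 experiments.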

[1] = arsenate co-treatment: 1 mM arsenate 1 h
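Also: each temperature applied for 3 min, abundance score taken as mean log2 fold change at the two lowest temperatures, z-score obtained by mean subtraction and division by SD.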

Sequence of UniProt Q92994 (Q92994 whole entry): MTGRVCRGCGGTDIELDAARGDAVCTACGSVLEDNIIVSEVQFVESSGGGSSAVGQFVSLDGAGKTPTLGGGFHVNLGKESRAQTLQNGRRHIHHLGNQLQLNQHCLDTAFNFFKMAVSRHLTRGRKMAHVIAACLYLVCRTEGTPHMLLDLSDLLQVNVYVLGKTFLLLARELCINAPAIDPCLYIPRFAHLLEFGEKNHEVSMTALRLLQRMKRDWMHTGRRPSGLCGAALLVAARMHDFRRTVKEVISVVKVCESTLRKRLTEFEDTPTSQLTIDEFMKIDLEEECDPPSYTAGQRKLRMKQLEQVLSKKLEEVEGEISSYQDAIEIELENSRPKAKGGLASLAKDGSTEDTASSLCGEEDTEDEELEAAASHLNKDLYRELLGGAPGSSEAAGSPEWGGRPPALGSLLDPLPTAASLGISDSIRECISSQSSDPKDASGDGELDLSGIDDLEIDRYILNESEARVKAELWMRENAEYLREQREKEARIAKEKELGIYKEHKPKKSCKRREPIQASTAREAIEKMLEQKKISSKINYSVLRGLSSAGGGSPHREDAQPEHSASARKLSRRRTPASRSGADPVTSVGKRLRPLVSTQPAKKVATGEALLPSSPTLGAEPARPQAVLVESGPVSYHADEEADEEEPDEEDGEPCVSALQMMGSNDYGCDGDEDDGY
Sequence of UniProt Q86WA6 (Q86WA6 whole entry): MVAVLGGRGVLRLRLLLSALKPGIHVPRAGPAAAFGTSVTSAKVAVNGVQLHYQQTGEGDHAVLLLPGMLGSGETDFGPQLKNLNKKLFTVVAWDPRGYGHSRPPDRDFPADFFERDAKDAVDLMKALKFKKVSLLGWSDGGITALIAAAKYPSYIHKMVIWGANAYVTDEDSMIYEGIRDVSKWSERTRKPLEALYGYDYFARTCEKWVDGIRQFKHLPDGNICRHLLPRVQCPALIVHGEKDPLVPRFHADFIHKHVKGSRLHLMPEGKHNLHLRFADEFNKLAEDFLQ
Sequence of UniProt P46736 (P46736 whole entry): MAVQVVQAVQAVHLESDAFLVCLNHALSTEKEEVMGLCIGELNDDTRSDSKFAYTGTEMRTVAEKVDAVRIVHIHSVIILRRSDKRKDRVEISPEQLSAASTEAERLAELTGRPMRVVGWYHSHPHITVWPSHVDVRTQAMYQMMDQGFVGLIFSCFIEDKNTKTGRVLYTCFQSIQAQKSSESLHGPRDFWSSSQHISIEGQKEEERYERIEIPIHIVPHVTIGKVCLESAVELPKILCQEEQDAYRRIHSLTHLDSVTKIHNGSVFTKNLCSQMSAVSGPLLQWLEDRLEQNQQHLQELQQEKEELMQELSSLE
Sequence of UniProt P21953 (P21953 whole entry): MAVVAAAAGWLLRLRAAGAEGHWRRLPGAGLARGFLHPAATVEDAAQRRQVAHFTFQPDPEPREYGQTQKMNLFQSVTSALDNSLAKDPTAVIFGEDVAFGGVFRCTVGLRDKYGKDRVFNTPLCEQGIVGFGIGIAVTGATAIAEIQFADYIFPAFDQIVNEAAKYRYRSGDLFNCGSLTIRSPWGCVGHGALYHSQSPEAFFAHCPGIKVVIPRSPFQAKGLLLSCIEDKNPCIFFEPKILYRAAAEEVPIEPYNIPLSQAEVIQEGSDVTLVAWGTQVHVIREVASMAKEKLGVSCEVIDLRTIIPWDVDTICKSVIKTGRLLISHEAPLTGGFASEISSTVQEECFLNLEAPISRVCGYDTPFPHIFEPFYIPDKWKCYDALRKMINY
Sequence of UniProt Q14457 (Q14457 whole entry): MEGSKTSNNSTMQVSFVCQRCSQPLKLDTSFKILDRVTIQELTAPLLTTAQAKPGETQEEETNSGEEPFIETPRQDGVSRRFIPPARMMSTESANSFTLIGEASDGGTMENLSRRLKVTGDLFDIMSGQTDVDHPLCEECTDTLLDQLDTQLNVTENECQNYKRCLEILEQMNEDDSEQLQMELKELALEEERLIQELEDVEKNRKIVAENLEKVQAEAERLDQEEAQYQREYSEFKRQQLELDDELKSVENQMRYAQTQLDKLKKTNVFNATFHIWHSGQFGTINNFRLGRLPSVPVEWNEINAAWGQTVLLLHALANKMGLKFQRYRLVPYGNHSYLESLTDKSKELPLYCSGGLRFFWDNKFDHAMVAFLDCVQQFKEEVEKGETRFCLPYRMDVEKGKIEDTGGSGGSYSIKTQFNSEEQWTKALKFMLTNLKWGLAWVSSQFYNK
Sequence of UniProt Q9NUP1 (Q9NUP1 whole entry): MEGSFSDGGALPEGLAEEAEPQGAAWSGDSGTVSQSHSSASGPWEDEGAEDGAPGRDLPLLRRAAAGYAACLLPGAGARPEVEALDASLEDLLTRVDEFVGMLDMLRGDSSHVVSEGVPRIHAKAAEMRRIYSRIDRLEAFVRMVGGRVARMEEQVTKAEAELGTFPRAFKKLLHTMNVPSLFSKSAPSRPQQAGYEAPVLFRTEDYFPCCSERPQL
Sequence of UniProt P55957 (P55957 whole entry): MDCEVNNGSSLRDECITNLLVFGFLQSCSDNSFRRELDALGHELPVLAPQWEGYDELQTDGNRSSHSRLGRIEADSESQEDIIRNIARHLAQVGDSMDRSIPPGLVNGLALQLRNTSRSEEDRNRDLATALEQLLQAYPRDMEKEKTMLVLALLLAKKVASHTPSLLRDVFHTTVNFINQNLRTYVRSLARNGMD
Sequence of UniProt Q6QNY1 (Q6QNY1 whole entry): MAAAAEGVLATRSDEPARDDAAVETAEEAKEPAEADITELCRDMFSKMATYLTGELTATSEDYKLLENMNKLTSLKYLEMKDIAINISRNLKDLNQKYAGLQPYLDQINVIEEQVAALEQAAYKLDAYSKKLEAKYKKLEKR
Sequence of UniProt Q9NSY1 (Q9NSY1 whole entry, looked up): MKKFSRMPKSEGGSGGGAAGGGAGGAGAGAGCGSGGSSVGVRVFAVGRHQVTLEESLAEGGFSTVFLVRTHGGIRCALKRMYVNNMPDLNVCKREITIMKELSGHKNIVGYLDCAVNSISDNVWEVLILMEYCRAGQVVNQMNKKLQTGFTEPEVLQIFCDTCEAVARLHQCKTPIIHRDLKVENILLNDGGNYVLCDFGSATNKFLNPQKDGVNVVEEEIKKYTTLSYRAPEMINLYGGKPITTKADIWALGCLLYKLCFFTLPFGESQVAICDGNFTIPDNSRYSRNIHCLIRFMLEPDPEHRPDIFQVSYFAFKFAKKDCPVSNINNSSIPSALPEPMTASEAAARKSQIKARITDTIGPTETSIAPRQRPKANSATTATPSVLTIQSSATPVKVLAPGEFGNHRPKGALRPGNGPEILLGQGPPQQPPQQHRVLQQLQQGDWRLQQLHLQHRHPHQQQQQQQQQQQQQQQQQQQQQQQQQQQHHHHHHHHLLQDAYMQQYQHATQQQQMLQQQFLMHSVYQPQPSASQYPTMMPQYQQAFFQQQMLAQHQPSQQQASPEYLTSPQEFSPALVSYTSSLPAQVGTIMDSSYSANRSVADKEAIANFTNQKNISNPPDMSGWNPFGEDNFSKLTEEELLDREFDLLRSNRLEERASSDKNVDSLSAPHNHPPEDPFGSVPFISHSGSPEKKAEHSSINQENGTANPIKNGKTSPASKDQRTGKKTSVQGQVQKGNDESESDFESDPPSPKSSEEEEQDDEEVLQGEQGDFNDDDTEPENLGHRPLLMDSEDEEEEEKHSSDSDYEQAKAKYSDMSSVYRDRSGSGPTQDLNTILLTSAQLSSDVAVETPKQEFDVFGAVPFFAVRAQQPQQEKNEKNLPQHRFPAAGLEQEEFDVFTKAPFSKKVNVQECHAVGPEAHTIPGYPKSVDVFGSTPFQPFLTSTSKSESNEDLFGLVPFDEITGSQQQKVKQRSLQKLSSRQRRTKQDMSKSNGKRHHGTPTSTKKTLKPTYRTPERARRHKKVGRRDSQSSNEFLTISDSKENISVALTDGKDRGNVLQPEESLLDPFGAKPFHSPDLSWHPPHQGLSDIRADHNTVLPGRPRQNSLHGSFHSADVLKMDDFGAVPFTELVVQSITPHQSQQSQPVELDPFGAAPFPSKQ
Sequence of UniProt Q7Z569 (Q7Z569 whole entry): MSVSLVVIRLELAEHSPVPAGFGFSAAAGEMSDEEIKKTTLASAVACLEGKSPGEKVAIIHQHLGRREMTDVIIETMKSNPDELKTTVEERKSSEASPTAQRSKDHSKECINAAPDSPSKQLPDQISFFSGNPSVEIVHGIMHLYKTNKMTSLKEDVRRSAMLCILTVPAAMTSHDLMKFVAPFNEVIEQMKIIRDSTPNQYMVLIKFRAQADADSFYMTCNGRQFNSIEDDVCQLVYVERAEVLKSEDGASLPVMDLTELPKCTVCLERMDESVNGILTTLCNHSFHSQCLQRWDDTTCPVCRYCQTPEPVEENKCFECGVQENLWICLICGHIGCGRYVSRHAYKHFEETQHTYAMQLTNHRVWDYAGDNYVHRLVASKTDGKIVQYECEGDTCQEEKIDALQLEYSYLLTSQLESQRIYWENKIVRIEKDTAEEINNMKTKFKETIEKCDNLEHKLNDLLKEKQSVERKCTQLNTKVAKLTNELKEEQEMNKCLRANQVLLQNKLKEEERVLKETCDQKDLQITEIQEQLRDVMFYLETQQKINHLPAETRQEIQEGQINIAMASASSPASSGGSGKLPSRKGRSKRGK
Sequence of UniProt Q12982 (Q12982 whole entry): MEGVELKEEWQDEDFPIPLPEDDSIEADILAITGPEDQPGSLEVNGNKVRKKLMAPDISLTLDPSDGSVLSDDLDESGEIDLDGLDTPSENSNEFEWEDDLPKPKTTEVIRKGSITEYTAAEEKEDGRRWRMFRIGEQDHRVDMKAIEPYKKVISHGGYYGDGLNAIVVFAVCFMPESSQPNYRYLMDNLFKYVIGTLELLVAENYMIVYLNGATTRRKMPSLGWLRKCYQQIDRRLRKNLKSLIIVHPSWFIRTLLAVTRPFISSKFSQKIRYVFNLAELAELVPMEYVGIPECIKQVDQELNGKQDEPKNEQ
Sequence of UniProt Q12983 (Q12983 whole entry): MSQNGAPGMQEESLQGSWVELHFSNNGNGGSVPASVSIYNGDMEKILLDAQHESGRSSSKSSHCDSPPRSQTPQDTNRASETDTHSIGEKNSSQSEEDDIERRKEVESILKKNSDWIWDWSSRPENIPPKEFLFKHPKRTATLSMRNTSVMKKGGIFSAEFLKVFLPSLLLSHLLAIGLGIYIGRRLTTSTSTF

Target	thermal stability z-score (lipoamide; [1])	thermal stability z-score (lipoamide; arsenate co-treatment: none)	thermal stability z-score (potassium arsenate)
BCAP31 (UniProt P51572)	0.0788	0.099	-0.144
BCAR1 (UniProt P56945)	-0.559	-0.583	-0.154
BCAR3 (UniProt O75815)	-0.0123	-0.0689	-0.106
BCAS2 (UniProt O75934)	0.913	0.747	0.558
BCAS3 (UniProt Q9H6U6)	-0.0897	0.561	-0.0972
BCAT2 (UniProt O15382)	0.516	0.0921	1.1
BCCIP (UniProt Q9P287)	0.431	-0.061	-0.181
BCKDHB (UniProt P21953)	0.134	0.149	1.11
BCKDK (UniProt O14874)	0.0555	-0.559	0.935
BCL2L13 (UniProt Q9BXK5)	0.605	0.206	0.655
BCL3 (UniProt P20749)	-0.234	0.114	-0.0259
BCL7B (UniProt Q9BQE9)	3.46	2.78	0.537
BCL7C (UniProt Q8WUZ0)	0.0654	0.0122	0.0252
BCL9 (UniProt O00512)	0.363	1.23	0.421
BCL9L (UniProt Q86UU0)	0.0577	0.096	-0.128
BCL10 (UniProt O95999)	0.00285	0.509	2.16
BCLAF1 (UniProt Q9NYF8)	1.93	0.229	-1.11
BCOR (UniProt Q6W2J9)	0.0203	0.0502	-0.011
BCR (UniProt P11274)	-0.0665	-0.0479	0.0296
BCS1L (UniProt Q9Y276)	0.472	0.86	0.3
BDH2 (UniProt Q9BUT1)	-0.0305	-0.246	-0.414
BECN1 (UniProt Q14457)	-0.39	-0.238	-0.408
BEGAIN (UniProt Q9BUH8)	-0.0429	-0.117	0.144
BET1 (UniProt O15155)	0.642	1.03	1.11

Target	thermal stability z-score (lipoamide; [1])	thermal stability z-score (lipoamide; arsenate co-treatment: none)	thermal stability z-score (potassium arsenate)
BICC1 (UniProt Q9H694)	0.291	0.353	-0.19
BICD1 (UniProt Q96G01)	-1.17	-1.22	-1.74
BICD2 (UniProt Q8TD16)	0.184	0.121	0.755
BID (UniProt P55957)	0.895	1.36	0.587
BIN1 (UniProt O00499)	-0.407	-0.803	0.183
BIN3 (UniProt Q9NQY0)	-0.115	-0.19	-0.201
BIRC2 (UniProt Q13490)	-0.731	-0.56	-0.483
BIRC5 (UniProt O15392)	0.166	0.186	0.136
BIRC6 (UniProt Q9NR09)	-0.51	-0.149	0.194
BLMH (UniProt Q13867)	0.51	0.365	0.0746
BLOC1S1 (UniProt P78537)	-0.0484	0.202	-0.255
BLOC1S2 (UniProt Q6QNY1)	2.75	1.1	1.61
BLOC1S3 (UniProt Q6QNY0)	0.923	0.625	0.0424
BLOC1S4 (UniProt Q9NUP1)	1.47	0.395	0.401
BLOC1S5 (UniProt Q8TDH9)	0.19	0.0962	0.446
BLVRA (UniProt P53004)	0.283	-0.236	-0.0313
BLVRB (UniProt P30043)	0.863	-0.0398	1.14
BLZF1 (UniProt Q9H2G9)	-0.0966	0.122	-0.103
BMP1 (UniProt P13497)	0.492	0.427	0.347
BMP2K (UniProt Q9NSY1)	-0.986	-0.217	0.122
BMS1 (UniProt Q14692)	0.575	0.482	0.723
BNIP1 (UniProt Q12981)	0.261	-0.294	0.0814
BNIP2 (UniProt Q12982)	1.13	0.0699	0.641
BNIP3 (UniProt Q12983)	0.679	0.193	2.44

Target	thermal stability z-score (lipoamide; [1])	thermal stability z-score (lipoamide; arsenate co-treatment: none)	thermal stability z-score (potassium arsenate)
BOD1L1 (UniProt Q8NFC6)	0.583	0.352	-0.589
BOLA2 (UniProt Q9H3K6)	0.16	0.49	0.583
BOLA3 (UniProt Q53S33)	-0.103	-0.245	0.0193
BOP1 (UniProt Q14137)	-1.64	-0.108	0.0419
BORCS5|LOH12CR1	1.36	1.29	0.518
BPGM (UniProt P07738)	-1.9	-0.479	-1.82
BPHL (UniProt Q86WA6)	-0.428	-0.368	-1.21
BPNT1 (UniProt O95861)	-0.0659	-0.197	-1.66
BPTF (UniProt Q12830)	0.137	0.144	-0.181
BRAF (UniProt P15056)	-0.207	0.176	0.328
BRAP (UniProt Q7Z569)	-0.31	0.051	0.485
BRAT1 (UniProt Q6PJG6)	-0.267	-0.15	0.562
BRCC3 (UniProt P46736)	-0.0792	0.172	0.468
BRD2 (UniProt P25440)	-0.0745	0.075	-0.153
BRD3 (UniProt Q15059)	0.0121	-0.107	-0.279
BRD4 (UniProt O60885)	0.496	0.462	-0.724
BRD7 (UniProt Q9NPI1)	-0.355	-0.169	-0.517
BRD8 (UniProt Q9H0E9)	0.111	-0.0134	-1.06
BRD9 (UniProt Q9H8M2)	0.218	0.153	0.496
BRE (UniProt Q9NXR7)	0.462	-0.15	0.319
BRF1 (UniProt Q92994)	-0.0333	-0.111	0.035
BRI3BP (UniProt Q8WY22)	0.227	0.0879	-0.544
BRIX1 (UniProt Q8TDN6)	0.442	-0.0247	1.3
BROX (UniProt Q5VW32)	1.03	1.02	-0.0457
